Experimental data as given in PMC3136501 (PLoS ONE, 2011).
Like-named read-outs stand apart in the source and are kept apart here.

How the values were obtained:
human OCT3 = target: T1, human OCT3 (Homo sapiens, UniProt O75751); assay: Inhibition of OCT3-mediated metformin uptake in stably transfected HEK cells; type: cell-based; details: for IC50: 5 µM [14C]metformin uptake, 5 min, HEK-OCT3, means ± SE of 3 experiments; for OCT3-mediated metformin uptake at low PPI concentrations: low concentrations of PPI, Figure 3
T1 sequence (O75751 1-556): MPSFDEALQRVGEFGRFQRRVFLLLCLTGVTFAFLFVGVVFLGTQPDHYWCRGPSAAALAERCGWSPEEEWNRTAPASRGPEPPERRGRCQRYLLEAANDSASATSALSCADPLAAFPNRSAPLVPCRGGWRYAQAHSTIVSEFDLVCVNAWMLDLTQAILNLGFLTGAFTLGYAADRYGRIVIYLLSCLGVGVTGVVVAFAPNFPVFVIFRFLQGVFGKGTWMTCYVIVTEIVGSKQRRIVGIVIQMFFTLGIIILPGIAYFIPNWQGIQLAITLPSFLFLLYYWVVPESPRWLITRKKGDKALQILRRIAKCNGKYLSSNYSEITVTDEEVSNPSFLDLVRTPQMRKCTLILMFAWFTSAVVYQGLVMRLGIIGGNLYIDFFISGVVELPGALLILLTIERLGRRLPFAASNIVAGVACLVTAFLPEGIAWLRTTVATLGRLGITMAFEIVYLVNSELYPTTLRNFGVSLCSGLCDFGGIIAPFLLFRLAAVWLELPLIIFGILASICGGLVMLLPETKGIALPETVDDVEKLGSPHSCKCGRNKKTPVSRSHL
Procedure: SLC22A1 cDNA and SLC22A2 cDNA had been PCR-amplified from human liver and kidney, respectively, as reported elsewhere and cDNAs were provided by the German Cancer Research Center; the study and the use of the tissue were approved by the institutional review board of the German Cancer Center, Heidelberg, Germany. Since the data were analyzed anonymously, and tissues were left-over samples from diagnostic procedures, written informed consent had not been required and obtained. IRB specifically waived the need for consent due to the fact the human tissue material used was fully anonymized. SLC22A3 cDNA was amplified using SLC22A3-TrueClone (Origene, Rockville, MD, USA) as the template. SLC22A1 cDNA was cloned into the expression vector pcDNA3.1/Hygro(-) (Invitrogen, Darmstadt, Germany), SLC22A2 and SLC22A3 cDNA into pcDNA3.1(+) (Invitrogen). Each transporter cDNA was sequenced and the respective deduced amino acid sequence was identical to the published reference protein sequence (OCT1: NP_003048.1; OCT2: NP_003049.2; OCT3: NP_068812.1). The human embryonic kidney 293 (HEK) cell line was obtained from the American Type Culture Collection. HEK cells were grown in DMEM (Sigma) supplemented with 10% fetal bovine serum (Sigma), 100 U⋅ml^−1 penicillin, and 100 µg⋅ml^−1 streptomycin (Lonza, Basel, Switzerland) at 37°C and 5% CO2. HEK cells were transfected with Metafectene Pro (Biontex, München, Germany). Selection of clones stably expressing OCT1 was carried out with 0.5 mg⋅ml^−1 hygromycin as described. Similarly, clones stably expressing OCT2 or OCT3 were selected with 800 µg⋅ml^−1 G418. HEK cells stably transfected with the empty pcDNA3.1(+) vector served as controls (HEK-Co). Cells were incubated with 5 mM butyrate 24 h before use to increase protein levels of recombinant transporters.
HEK cells (400000 cells/well) were seeded into 24-well cell culture plates (Greiner Bio-One, Frickenhausen, Germany) and grown for 48 h. Cell adherence was improved by coating plates with poly-L-lysine (Biochrom AG, Berlin, Germany) prior to cell plating. All uptake studies were carried out at 37°C as described. For uptake measurements, cells were firstly washed with uptake buffer (145 mM NaCl, 5 mM hydroxyethylpiperazine ethanesulfonic acid, 3 mM KCl, 1 mM CaCl2, 0.5 mM MgCl2, 5 mM glucose, pH 7.4, [46]) prewarmed to 37°C. […] Uptake was stopped at indicated time points by removing the uptake buffer and immediately washing the cells 3 times with ice-cold uptake buffer. Cells were lysed with 0.2% SDS and intracellular radioactivity was determined by liquid scintillation counting (Hidex 300SL TDCR liquid scintillation counter, Turku, Finland). For measuring inhibition of OCT-mediated metformin uptake by PPIs, 5 µM [^14C]metformin uptake was measured in the presence of different PPI concentrations and stopped after 5 min (OCT1, OCT3) or 5 sec (OCT2).
OCT-specific metformin uptake was obtained by subtracting metformin uptake in the presence of 2 mM unlabeled 1-methyl-4-phenylpyridinium (MPP) from that in its absence. […] OCT-specific metformin uptake in the presence of a PPI was then calculated as percentage of that in the absence of the respective PPI (100% uninhibited). For each PPI concentration, 3 individual experiments each with 3 parallel measurements were performed. Apparent IC50 values for inhibition of metformin uptake by PPIs were calculated for each individual experiment by fitting the values to the Hill equation using GraphPad Prism 4 (GraphPad Software Inc., La Jolla, CA, USA). Values in Table 1 are given as the means ± SE of the 3 individual experiments.

[1] = Pharmacokinetic data of PPIs in humans; type: in vivo; details: maximal total concentration in portal venous blood
[2] = humans, maximal total concentration in systemic circulation, cited from earlier work
[3] = design: method as in earlier work; details: computed property from PubChem Compound database; cited from earlier work
OCT1 = system: OCT1; design: method as in PMID 21103969; details: transport substrate; cited from earlier work
OCT2 = system: OCT2; design: method as in PMID 21103969; details: transport substrate; cited from earlier work
OCT3 = system: OCT3; design: method as in PMID 21103969; details: transport substrate; cited from earlier work

| Structure (SMILES) | IC50 (human OCT3) [µM] | Heavy atom count [3] | Tautomer count [3] | OCT3-mediated metformin uptake at low PPI concentrations (human OCT3) | also measured |
| --- | --- | --- | --- | --- | --- |
| Cc1c(OCC(F)(F)F)ccnc1C[S+]([O-])c1nc2ccccc2[nH]1 (centres unmarked) [Lansoprazole] | 3.1 ± 1.3 | 25 | 0 |  | Calculated Cport.vn. ([1]; equation 1 in ref 56, dosage 30 mg (81 µmol)): 7.8 µM; Cmax ([2]; dosage 30 mg (81 µmol)): 2700 nM |
| C[n+]1ccc(-c2ccccc2)cc1 [MPP, 1-methyl-4-phenylpyridinium] |  |  |  |  | Metformin uptake by HEK-OCT3 in the presence of MPP (human OCT3; 5 µM metformin, 2 mM unlabeled MPP): almost completely absent; Km (OCT1): 15 to 32 µM; Km (OCT2): 3 to 19 µM; Km (OCT3): 47 to 83 µM |
| COc1ccc2[nH]c([S+]([O-])Cc3ncc(C)c(OC)c3C)nc2c1 (centres unmarked) [Omeprazole] | 22 ± 2.2 | 24 | 2 |  | Calculated Cport.vn. ([1]; equation 1 in ref 56, dosage 20 mg (58 µmol)): 5.4 µM; Cmax ([2]; dosage 20 mg (58 µmol)): 1800 nM |
| COc1ccnc(C[S+]([O-])c2nc3ccc(OC(F)F)cc3[nH]2)c1OC (centres unmarked) [Pantoprazole] | 22.9 ± 5.2 | 26 | 2 | activated | Calculated Cport.vn. ([1]; equation 1 in ref 56, dosage 40 mg (104 µmol)): 12.0 µM; Cmax ([2]; dosage 40 mg (104 µmol)): 5500 nM |
| COCCCOc1ccnc(C[S+]([O-])c2nc3ccccc3[nH]2)c1C (centres unmarked) [Rabeprazole] | 3 ± 0.8 | 25 | 0 | activated | Calculated Cport.vn. ([1]; equation 1 in ref 56, dosage 20 mg (56 µmol)): 4.7 µM; Cmax ([2]; dosage 20 mg (56 µmol)): 1200 nM |
| COc1ccc2[nH]c([S+]([O-])Cc3ncc(C)c(OC)c3C)nc2n1 (centres unmarked) [Tenatoprazole] | 14.7 ± 2.4 | 24 | 3 | activated | Calculated Cport.vn. ([1]; equation 1 in ref 56, dosage 40 mg (116 µmol)): 17.2 µM; Cmax ([2]; dosage 40 mg (116 µmol)): 10000 nM |
